Legend:
[1] = biological target: T1, ceramide kinase (CERK), mouse (Mus musculus, UniProt Q8K4Q7); assay: C1P product levels by UPLC ESI-MS/MS in mouse dermal fibroblasts, […]; type: cell-based
T1 sequence (Q8K4Q7 1-531): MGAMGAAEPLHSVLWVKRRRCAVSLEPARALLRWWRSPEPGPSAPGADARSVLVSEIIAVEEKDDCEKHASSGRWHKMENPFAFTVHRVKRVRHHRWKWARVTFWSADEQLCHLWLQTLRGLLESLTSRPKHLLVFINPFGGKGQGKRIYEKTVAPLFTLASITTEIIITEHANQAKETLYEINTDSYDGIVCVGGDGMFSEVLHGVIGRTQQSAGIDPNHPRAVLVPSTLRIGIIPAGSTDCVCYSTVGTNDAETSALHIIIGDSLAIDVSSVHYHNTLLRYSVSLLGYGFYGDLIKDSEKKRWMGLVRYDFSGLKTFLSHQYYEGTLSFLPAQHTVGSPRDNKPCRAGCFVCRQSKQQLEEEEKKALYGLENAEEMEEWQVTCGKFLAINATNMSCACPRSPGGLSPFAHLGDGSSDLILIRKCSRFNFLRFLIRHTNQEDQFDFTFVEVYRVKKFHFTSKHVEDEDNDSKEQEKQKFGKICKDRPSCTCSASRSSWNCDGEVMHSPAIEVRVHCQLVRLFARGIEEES

[2] = biological target: T2, ceramide kinase (CERK), human (Homo sapiens, UniProt Q8TCT0); assay: in vitro CERK activity assay; type: biochemical
T2 sequence (Q8TCT0 1-537): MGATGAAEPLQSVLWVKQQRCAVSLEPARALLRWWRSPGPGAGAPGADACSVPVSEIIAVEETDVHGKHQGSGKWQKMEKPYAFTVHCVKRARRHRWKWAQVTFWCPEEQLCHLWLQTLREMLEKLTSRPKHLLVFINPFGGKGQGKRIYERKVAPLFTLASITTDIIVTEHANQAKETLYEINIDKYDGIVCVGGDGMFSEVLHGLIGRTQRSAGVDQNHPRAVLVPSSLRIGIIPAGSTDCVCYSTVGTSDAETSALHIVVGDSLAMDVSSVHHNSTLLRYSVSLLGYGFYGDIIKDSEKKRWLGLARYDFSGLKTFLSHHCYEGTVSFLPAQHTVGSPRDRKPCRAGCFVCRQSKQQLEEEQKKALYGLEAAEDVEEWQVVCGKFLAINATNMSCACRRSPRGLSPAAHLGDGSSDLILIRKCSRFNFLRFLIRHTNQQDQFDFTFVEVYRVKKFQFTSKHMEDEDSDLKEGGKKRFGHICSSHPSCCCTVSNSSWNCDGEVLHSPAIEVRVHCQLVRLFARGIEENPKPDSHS

[3] = biological target: T1, ceramide kinase (CERK), mouse; assay: in vitro CERK activity assay; type: biochemical

Molecule: O=C(Nc1nc2ccc(NC(=O)C34CC5CC(CC(C5)C3)C4)cc2s1)c1ccccc1 [NVP-231, N-[2-(Benzoylamino)-6-benzothiazolyl]tricyclo[3.3.1.13,7]decane-1-carboxamide]
- C1P product levels by UPLC ESI-MS/MS in mouse dermal fibroblasts, 100 nM [1]: significantly reduced by SYR382141 in pDFs to an equivalent or greater extent as NVP-231

Molecule: SYR382141
- IC50 [2]: 5 nM
- IC50 [3]: 9 nM

— PMC8980959, “Ceramide kinase regulates acute wound healing by suppressing 5-oxo-ETE biosynthesis and signaling via its receptor OXER1” (Journal of Lipid Research, 2022)
